# Laboratory results taken from ChEMBL document CHEMBL1127812, “Molecular modeling studies on ligand binding to sialidase from influenza virus and the mechanism of catalysis” (J Med Chem, 1994).
# Target: Neuraminidase (Influenza A virus (A/Puerto Rico/8/1934(H1N1)), UniProt P03468)
# Sequence (P03468 whole entry): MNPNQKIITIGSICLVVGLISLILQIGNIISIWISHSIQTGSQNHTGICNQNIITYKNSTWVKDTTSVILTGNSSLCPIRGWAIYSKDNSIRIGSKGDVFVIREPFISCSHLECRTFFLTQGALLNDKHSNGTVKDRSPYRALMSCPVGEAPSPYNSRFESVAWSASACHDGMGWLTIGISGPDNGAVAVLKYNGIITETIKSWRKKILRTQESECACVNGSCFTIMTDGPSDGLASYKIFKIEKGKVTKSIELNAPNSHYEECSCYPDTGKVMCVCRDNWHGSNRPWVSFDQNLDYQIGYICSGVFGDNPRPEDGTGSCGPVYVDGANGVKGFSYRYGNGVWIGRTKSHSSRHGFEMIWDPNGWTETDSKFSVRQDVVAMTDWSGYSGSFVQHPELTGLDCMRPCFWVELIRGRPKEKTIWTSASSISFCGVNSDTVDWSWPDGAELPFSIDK
# Description: inhibition of Influenza A Sialidase
structure (smiles),measurement,value
CC(=O)NC1C(N)C=C(C(=O)O)OC1[C@H](O)[C@H](O)CO (stereo partly specified),Ki,40 nM
